Assay results published in ChEMBL document CHEMBL1201862, “PubChem BioAssay data set” (2004).
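Step 1: Grow cells in 96-well plates. Step 2: Expose to compound for 48 hours at 5 concentrations. Step 3: Interpolate endpoints linearly; if unreached, use highest concentration. GI50 = concentration required for 50% inhibition of growth.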 Active and inactive are the calls of the source. Cut-off read from the data, not from the text of the source: active = GI50 up to about 1.1 µM and inactive = higher.

Experiments:
Experiment in all cases: DTP human tumour cell line panel, 48 h
786-0 = test system: 786-0
Hs-578T = test system: Hs-578T
M14 = test system: M14
MDA-MB-435 = test system: MDA-MB-435
A498 = test system: A498
IGROV-1 = test system: IGROV-1
SNB-19 = test system: SNB-19
UACC-257 = test system: UACC-257
MDA-MB-231 = test system: MDA-MB-231
ACHN = test system: ACHN
MOLT-4 = test system: MOLT-4
T47D = test system: T47D
HCT-15 = test system: HCT-15
RXF 393 = test system: RXF 393
BT-549 = test system: BT-549
NCI-H522 = test system: NCI-H522
Malme-3M = test system: Malme-3M
NCI-H460 = test system: NCI-H460
SK-MEL-5 = test system: SK-MEL-5

In the case of `COc1ccc(-c2nc3ccc(C)cc3o2)c(OC)c1`, the GI50 (786-0) is reported as 21.4 µM (inactive), the GI50 (Hs-578T) is reported as 25.8 µM (inactive) and the GI50 (M14) is reported as 18.2 µM (inactive). For the same compound, the GI50 (MDA-MB-435) was 21.6 µM (inactive), the GI50 (A498) was 18.6 µM (inactive) and the GI50 (IGROV-1) was 20.8 µM (inactive). The GI50 (SNB-19) was 7.41 µM (inactive), the GI50 (UACC-257) was 17.7 µM (inactive) and the GI50 (MDA-MB-231) was 19.8 µM (inactive). The GI50 (ACHN) was 33 µM (inactive), the GI50 (MOLT-4) was 11.3 µM (inactive) and the GI50 (T47D) was 30.1 µM (inactive). The GI50 (HCT-15) was 22.5 µM, the GI50 (RXF 393) was 22.5 µM (inactive) and the GI50 (BT-549) was 23.7 µM (inactive). For the same compound, the GI50 (NCI-H522) was 18.8 µM (inactive), the GI50 (Malme-3M) was 21.2 µM (inactive) and the GI50 (NCI-H460) was 2.93 µM (inactive). For the same compound, the GI50 (SK-MEL-5) was 19.3 µM (inactive).

With `CN(C)CCCSc1nc2c(c(=N)n1-c1ccccc1)c(=S)n(-c1ccccc1)c(=S)n2-c1ccccc1` the GI50 (786-0) was 1.27 µM (inactive), the GI50 (Hs-578T) was 3.12 µM (inactive) and the GI50 (M14) was 1.78 µM (inactive). For the same compound, the GI50 (MDA-MB-435) was 1.72 µM (inactive), the GI50 (A498) was 2.42 µM (inactive) and the GI50 (IGROV-1) was 1.83 µM (inactive). For the same compound, the GI50 (SNB-19) was 2.51 µM (inactive), the GI50 (UACC-257) was 1.77 µM (inactive) and the GI50 (MDA-MB-231) was 1.61 µM (inactive). For the same compound, the GI50 (ACHN) was 1.82 µM (inactive), the GI50 (MOLT-4) was 0.789 µM (active) and the GI50 (T47D) was 2.01 µM (inactive). For the same compound, the GI50 (HCT-15) was 1.61 µM, the GI50 (RXF 393) was 1.57 µM (inactive) and the GI50 (BT-549) was 1.68 µM (inactive). The GI50 (NCI-H522) was 1.69 µM (inactive), the GI50 (Malme-3M) was 2.04 µM (inactive) and the GI50 (NCI-H460) was 1.82 µM (inactive). For the same compound, the GI50 (SK-MEL-5) was 1.91 µM (inactive).

With `Cn1nc2c(c1N)Cc1c(nn(C)c1N)-c1ccccc1-2` the GI50 (786-0) was > 100 µM (inactive), the GI50 (Hs-578T) was > 100 µM (inactive) and the GI50 (M14) was > 100 µM (inactive). For the same compound, the GI50 (MDA-MB-435) was > 100 µM (inactive), the GI50 (A498) was 20.2 µM (inactive) and the GI50 (IGROV-1) was > 100 µM (inactive). The GI50 (SNB-19) was > 100 µM (inactive), the GI50 (UACC-257) was > 100 µM (inactive) and the GI50 (MDA-MB-231) was > 100 µM (inactive). For the same compound, the GI50 (ACHN) was > 100 µM (inactive), the GI50 (MOLT-4) was > 100 µM (inactive) and the GI50 (T47D) was > 100 µM (inactive). For the same compound, the GI50 (HCT-15) was greater than 100 µM, the GI50 (RXF 393) was > 100 µM (inactive) and the GI50 (BT-549) was > 100 µM (inactive). The GI50 (NCI-H522) was > 100 µM (inactive), the GI50 (Malme-3M) was > 100 µM (inactive) and the GI50 (NCI-H460) was > 100 µM (inactive). The GI50 (SK-MEL-5) was > 100 µM (inactive).

`CN1C(=O)C23CC4=CC=CC(O)C4N2C(=O)C1(CO)SS3` (centres undefined) was tested, and the GI50 (786-0) was 0.084 µM (active), the GI50 (Hs-578T) was 0.39 µM (active) and the GI50 (M14) was 0.0506 µM (active). The GI50 (MDA-MB-435) was 0.224 µM (active), the GI50 (A498) was 0.234 µM (active) and the GI50 (IGROV-1) was 0.145 µM (active). For the same compound, the GI50 (SNB-19) was 0.553 µM (active), the GI50 (UACC-257) was 0.299 µM (active) and the GI50 (MDA-MB-231) was 0.199 µM (active). The GI50 (ACHN) was 0.174 µM (active), the GI50 (MOLT-4) was 0.134 µM (active) and the GI50 (T47D) was 0.183 µM (active). The GI50 (HCT-15) was 0.0845 µM, the GI50 (RXF 393) was 0.179 µM (active) and the GI50 (BT-549) was 0.291 µM (active). The GI50 (NCI-H522) was 0.169 µM (active), the GI50 (Malme-3M) was 0.223 µM (active) and the GI50 (NCI-H460) was 0.0948 µM (active). The GI50 (SK-MEL-5) was 0.173 µM (active).

For `O=C1c2ccccc2C(=O)N1CCCCCCNOCCCN1C(=O)c2ccccc2C1=O`, the GI50 (786-0) was 99.1 µM (inactive), the GI50 (Hs-578T) was > 100 µM (inactive) and the GI50 (M14) was 21.3 µM (inactive). For the same compound, the GI50 (MDA-MB-435) was 25.2 µM (inactive), the GI50 (A498) was 21.6 µM (inactive) and the GI50 (IGROV-1) was 90.6 µM (inactive). For the same compound, the GI50 (SNB-19) was 78.3 µM (inactive), the GI50 (UACC-257) was 31.1 µM (inactive) and the GI50 (MDA-MB-231) was 57.5 µM (inactive). For the same compound, the GI50 (ACHN) was 36.7 µM (inactive), the GI50 (MOLT-4) was 19.3 µM (inactive) and the GI50 (T47D) was 16.8 µM (inactive). The GI50 (HCT-15) was 40.2 µM, the GI50 (RXF 393) was 17.5 µM (inactive) and the GI50 (BT-549) was 30.3 µM (inactive). The GI50 (NCI-H522) was 26.5 µM (inactive), the GI50 (Malme-3M) was 41.3 µM (inactive) and the GI50 (NCI-H460) was 44.2 µM (inactive). For the same compound, the GI50 (SK-MEL-5) was 15.4 µM (inactive).

`O=C(NCCN1CCCC1)c1cn2c(ccc3sc4ccccc4c(=O)c32)n1` was tested, and the GI50 (786-0) was 1.41 µM (inactive), the GI50 (Hs-578T) was 17 µM (inactive) and the GI50 (M14) was 15.6 µM (inactive). The GI50 (MDA-MB-435) was 21 µM (inactive), the GI50 (A498) was 16.3 µM (inactive) and the GI50 (IGROV-1) was 11.7 µM (inactive). The GI50 (SNB-19) was 13.7 µM (inactive), the GI50 (UACC-257) was 17.7 µM (inactive) and the GI50 (MDA-MB-231) was 2.16 µM (inactive). For the same compound, the GI50 (ACHN) was 5.13 µM (inactive), the GI50 (MOLT-4) was 0.422 µM (active) and the GI50 (T47D) was 19.6 µM (inactive). For the same compound, the GI50 (HCT-15) was 10.9 µM, the GI50 (RXF 393) was 10.8 µM (inactive) and the GI50 (BT-549) was 17.6 µM (inactive). The GI50 (NCI-H522) was 10.7 µM (inactive), the GI50 (Malme-3M) was 16 µM (inactive) and the GI50 (NCI-H460) was 1.01 µM (active). The GI50 (SK-MEL-5) was 10.3 µM (inactive).
